Experimental data reported in patent publication US8933130B2, “Treatment of vasomotor symptoms with selective estrogen receptor modulators” (Radius Health, Inc., priority 2006, dated 2015).

Tests used:
[1] = system: morphine-addicted ovariectomized rats; assay: Rodent model of hot flashes: tail skin temperature change after naloxone in morphine-addicted ovariectomized rats; assay type: in vivo, rat; conditions: for Mean Tail Skin Temp.: tail skin temperature change after naloxone, ovariectomized rats, vehicle 5.6° C.
Experimental: The SERM, (R)-6-{2-{Ethyl[4-(2-ethylaminoethyl)benzyl]amino}-4-methoxyphenyl}-5,6,7,8-tetrahydronaphthalen-2-ol (“SERM A”), was evaluated for its ability to modulate vasomotor activity in a rodent model of hot flashes. (Merchenthaler, Maturitas, 1998 30:307-316). Briefly, ovariectomized adult rats were implanted with slow release morphine sulfate pellets on days 5 and 6 post-ovariectomy. Beginning at 4 days post-ovariectomy, once-daily treatment was initiated with a positive control, ethynyl estradiol (0.3 mg/kg), SERM A (1 and 10 mg/kg) or vehicle (95% corn oil, 5% DMSO by volume), delivered by subcutaneous injection. Treatment with the test agents was continued daily until the end of the study. On day 10, probes capable of continuously monitoring temperature were applied to the tail skin surface of the treated rats. The rats were then treated with naloxone, a morphine antagonist, and the change in skin temperature recorded for a period of 60 minutes.

[2] = system: 19-day old Sprague-Dawley rats (uteri); conditions: rat, in vivo
Experimental: 19-day old Sprague-Dawley rats were treated with either vehicle (95% corn oil/5% DMSO), estradiol (0.01 mg/kg), raloxifene (10 mg/kg), tamoxifen (1 mg/kg) or SERM A (100, 30, 10, 3, 1, or 0.3 mg/kg). The rats were dosed once daily by subcutaneous injection for three consecutive days. 24 hours after the last dose, the rats were euthanized, uteri were harvested and their wet weight recorded.

[3] = system: 19-day old Sprague-Dawley rats (uteri); assay: Antagonism of estradiol-mediated uterine stimulation: uterine wet weight in 19-day old rats; assay type: in vivo, rat; conditions: SERM A 10, 3, 1, 0.3, 0.1, 0.03, 0.01 mg/kg combined with estradiol 0.01 mg/kg, s.c. once daily for three days; FIG. 3
Experimental: 19-day old Sprague-Dawley rats were treated with either vehicle (95% corn oil/5% DMSO), estradiol (0.01 mg/kg), or a combination of estradiol (0.01 mg/kg) and SERM A (10, 3, 1, 0.3, 0.1, 0.03, 0.01 mg/kg). The rats were dosed once daily by subcutaneous injection for three consecutive days. 24 hours after the last dose, the rats were euthanized, uteri were harvested and their wet weight recorded.

SMILES | increase in skin temperature after naloxone treatment, compared to vehicle ([1]; 0.3 mg/kg s.c. once daily) | Mean Tail Skin Temp. ([1]; 0.3 mg/kg once daily s.c.) | increase in skin temperature after naloxone treatment, compared to vehicle ([1]; 0.1 and 0.01 mg/kg) | increase in skin temperature after naloxone treatment, compared to vehicle ([1]; 1 or 10 mg/kg s.c. once daily) | elevation of tail skin temperature associated with morphine addiction withdrawal ([1]; morphine-addicted ovariectomized rats, FIG. 1) | activity on reducing tail skin temperature increase, compared with positive control ethynyl estradiol ([1]; statistical analysis, SERM A 1 and 10 mg/kg vs ethynyl estradiol 0.3 mg/kg) | Mean Tail Skin Temp. ([1]; 1 mg/kg once daily s.c.) | Mean Tail Skin Temp. ([1]; 10 mg/kg once daily s.c.) | uterine stimulation at doses effective at modulating vasomotor response [2] | estradiol-mediated increase in uterine weight [3]
C#C[C@]1(O)CC[C@H]2[C@@H]3CCc4cc(O)ccc4[C@H]3CC[C@@]21C [Ethynyl estradiol, ethynyl estradiol, reference compound] | significantly reduced the increase in skin temperature | 1.2 °C |  |  |  |  |  |  |  | 
CCNCCc1ccc(CN(CC)c2cc(OC)ccc2[C@@H]2CCc3cc(O)ccc3C2)cc1 [SERM A, (R)-6-{2-{Ethyl[4-(2-ethylaminoethyl)benzyl]amino}-4-methoxyphenyl}-5,6,7,8-tetrahydronaphthalen-2-ol] |  |  | did not significantly reduce the increase in skin temperature | significantly reduced the increase in skin temperature | suppressing the elevation of tail skin temperature | no significant difference | 2.1 °C | 2.0 °C | lack of uterine stimulation | decreased the estradiol-mediated increase in a dosage dependent manner
